{"source": "patent US12564597B2", "about": "(priority 2020, dated 2026)", "key": {"[1]": {"experiment": "in vitro", "description": "(§1) Metabolism Studies. Metabolic stability of test compounds was evaluated in liver microsomes from rat (RLM) and human (HLM). This was accomplished by incubating test compounds with microsomes and monitoring disappearance of parent compound as well as metabolite formation over time using LC-MS/MS in Multiple Reaction Monitoring mode (MRM).\n(§2) Stock solutions of test compounds were prepared in DMSO at a concentration of 10 mM.\n(§3) Total Incubation volume: 100 μL\n(§4) Compound concentration: 10 μM\n(§5) Protein Concentration: 0.5 mg/mL (0.25 mg/mL for positive controls)\n(§6) From the above mix, 70 PL was added to individual wells of 96 well reaction plates and pre-incubated at 37° C. for 5 min. […] Reactions without NADPH and buffer controls (minus NADPH) at 0 min and 60 min were also incubated to rule out non-NADPH metabolism or chemical instability in the incubation buffer. All reactions were terminated using 100 μL of ice-cold acetonitrile containing internal standard (glipizide) at 0, 5, 15, 30 and 60 min.\n(§7) Stock solution of noribogaine was prepared in DMSO at a concentration of 20 mM and serially diluted in DMSO to prepare 10, 3, 1, 0.3, 0.1 and 0.03 mM solutions respectively.\n(§8) Samples were monitored for parent compounds disappearance and formation of metabolite in MRM mode using LC-MS/MS instrument (API-4000 with Waters UPLC).\n(§9) The percent remaining of test compounds and positive control in each sample was determined by considering peak area ratio in the 0 minute sample as 100%.\n(§10) In vitro intrinsic clearance (CL′int) (units in mL/min/kg) was calculated using the formula: […]\n(§11) For human, monkey, dog, rat and mouse the liver weight are 20 gm, 32 gm, 32 gm, 40 gm and 90 gm respectively."}, "[2]": {"experiment": "Metabolic stability and noribogaine formation in rat liver microsomes (RLM)", "details": "for Percentage turnover of test compounds (percent remaining): 10 μM, +NADPH; for % Remaining at 60 min (+NADPH): summary; for % Remaining at 60 min (−NADPH): without NADPH; for half-life at 10 μM: male, rat, microsomes, pH 7.4", "description": "as §1, §2, §3, §4, §5, §6, §7, §8, §9, §10, §11"}, "[3]": {"experiment": "Buffer control for chemical instability in the incubation buffer", "type": "physicochemical", "details": "Kphos buffer pH 7.4, 37° C., no microsomes, minus NADPH"}, "[4]": {"experiment": "Plasma pharmacokinetics and brain distribution in male Wistar rats after a single intraperitoneal dose", "description": "Formulation strengths for intraperitoneal administration was 4 mg/mL. A weighed quantity of compound was combined with an appropriate volume of vehicle (10% ethanol and 90% normal saline), the mixture was warmed to 55° C. and vortexed until a clear yellowish solution was obtained. The dosing volume administered was 10 mL/kg for intraperitoneal route.\nHealthy male Wistar rats (8-12 weeks old) weighing between 280 to 300 g were procured from Global, India. Three rats were housed in each cage. […] Temperature and humidity were recorded by auto-controlled data logger system. All the animals were provided laboratory rodent diet (Envigo Research private Ltd, Hyderabad). Reverse osmosis water treated with ultraviolet light was provided ad libitum.\nBlood samples (approximately 120 μL) were collected under light isoflurane anesthesia from retro orbital plexus from a set of three rats at specified time intervals. Samples were collected into labeled micro-tubes, containing K2EDTA solution (10 μL of 20% K2EDTA of solution per mL of blood) as an anticoagulant. Plasma was immediately harvested from the blood by centrifugation at 4000 rpm for 10 min at 4±2° C. and stored below −70±10° C. until bioanalysis.\nImmediately, after blood collection animals were euthanized with excess CO2 and brain was isolated at each time point. Brain was rinsed three times in ice cold PBS (for 5-10 seconds/rinse using ˜5-10 mL fresh PBS in disposable petri dish for each rinse) and dried on blotting paper. Brain samples were homogenized using ice-cold phosphate buffer saline (pH 7.4) and homogenates were stored below −70±10° C. until analysis. Total homogenate volume was three times the tissue weight.\nThe extraction procedure for plasma and brain samples and the spiked plasma and brain calibration standards were identical: A 25 PL of study sample or spiked plasma and brain calibration standard was added to individual pre-labeled micro-centrifuge tubes followed by 100 PL of internal standard prepared in Acetonitrile (Glipizide, 500 ng/mL) was added except for blank, where 100 μL of Acetonitrile was added. Samples were vortexed for 5 minutes and then centrifuged for 10 minutes at a speed of 4000 rpm at 4° C. Following centrifugation, 100 μL of clear supernatant was transferred to a 96 well plate and analyzed using LC-MS/MS.\nNon-compartmental analysis tool of Phoenix WinNonlin® (Version 7.0) was used to assess the pharmacokinetic parameters. Peak plasma concentrations (Cmax) and time for the peak plasma concentrations (Tmax) were the observed values. The areas under the concentration time curve (AUClast and AUCinf) were calculated by linear trapezoidal rule. The terminal elimination rate constant, ke was determined by regression analysis of the linear terminal portion of the log plasma concentration-time curve."}, "[5]": {"details": "0.08 h after CD3O-ibogamine 40 mg/kg i.p."}, "[6]": {"details": "0.5 h after CD3O-ibogamine 40 mg/kg i.p."}, "[7]": {"details": "1 h after CD3O-ibogamine 40 mg/kg i.p."}, "[8]": {"details": "2 h after CD3O-ibogamine 40 mg/kg i.p."}, "[9]": {"details": "3 h after CD3O-ibogamine 40 mg/kg i.p."}, "[10]": {"details": "male, Wistar, rat, in vivo, ip, 40 mg/kg, brain, analyte after CD3O-ibogamine 40 mg/kg i.p."}, "[11]": {"details": "male, Wistar, rat, in vivo, ip, 40 mg/kg, plasma, analyte after CD3O-ibogamine 40 mg/kg i.p."}}}
{"compound": "CCOc1ccc2[nH]c3c(c2c1)CCN1C[C@H]2C[C@H](CC)C1[C@H]3C2", "note": "[EtO-Ibogamine, 10-ethoxy-ibogamine]", "values": [{"measurement": "Percentage turnover of test compounds (percent remaining)", "setting": "[1]; human, microsomes, 0 h, pH 7.4", "value": 100, "unit": "%"}, {"measurement": "Percentage turnover of test compounds (percent remaining)", "setting": "[1]; human, microsomes, 5 min, pH 7.4", "value": 103, "unit": "%"}, {"measurement": "Percentage turnover of test compounds (percent remaining)", "setting": "[1]; human, microsomes, 0.5 h, pH 7.4", "value": 85, "unit": "%"}, {"measurement": "% Remaining at 60 min (+NADPH)", "setting": "[1]; human, microsomes, 1 h, pH 7.4", "value": 66, "unit": "%"}, {"measurement": "% Remaining at 60 min (−NADPH)", "setting": "[1]; human, microsomes, 1 h, pH 7.4", "value": 106, "unit": "%"}, {"measurement": "Percentage turnover of test compounds (percent remaining)", "setting": "[1]; human, microsomes, 1 h, pH 7.4", "value": 66, "unit": "%"}, {"measurement": "Percentage turnover of test compounds (percent remaining)", "setting": "[1]; human, microsomes, […], pH 7.4", "value": 98, "unit": "%"}, {"measurement": "half-life", "setting": "[1]; human, microsomes, pH 7.4", "value": "> 60", "unit": "min"}, {"measurement": "CLh, int", "setting": "[1]; human, pH 7.4", "value": 13, "unit": "mL/min/kg"}, {"measurement": "rate of conversion of the compound compared to that of ibogaine", "setting": "[1]; liver microsomes, species not given", "value": "essentially the same"}, {"measurement": "CLh, int", "setting": "[2]; RLM", "value": 445, "unit": "mL/min/kg"}, {"measurement": "Percentage turnover of test compounds (percent remaining)", "setting": "[2]; RLM, 0 min", "value": 100, "unit": "%"}, {"measurement": "Percentage turnover of test compounds (percent remaining)", "setting": "[2]; RLM, 5 min", "value": 77, "unit": "%"}, {"measurement": "Percentage turnover of test compounds (percent remaining)", "setting": "[2]; RLM, 15 min", "value": 42, "unit": "%"}, {"measurement": "Percentage turnover of test compounds (percent remaining)", "setting": "[2]; RLM, 30 min", "value": 3, "unit": "%"}, {"measurement": "Percentage turnover of test compounds (percent remaining)", "setting": "[2]; RLM, 60 min", "value": 0, "unit": "%"}, {"measurement": "% Remaining at 60 min (+NADPH)", "setting": "[2]; RLM", "value": 0, "unit": "%"}, {"measurement": "% Remaining at 60 min (−NADPH)", "setting": "[2]; RLM", "value": 88, "unit": "%"}, {"measurement": "half-life at 10 μM", "setting": "[2]", "value": 6, "unit": "min"}, {"measurement": "% Remaining at 60 min (Buffer)", "setting": "[3]", "value": 88, "unit": "%"}]}
{"compound": "[2H]C([2H])([2H])Oc1ccc2[nH]c3c(c2c1)CCN1C[C@H]2C[C@H](CC)C1[C@H]3C2", "note": "[CD3O-ibogamine]", "values": [{"measurement": "Mean brain concentration", "setting": "[4]; [5]", "value": 11340, "unit": "ng/g"}, {"measurement": "Mean plasma concentration", "setting": "[4]; [5]", "value": 1229, "unit": "ng/mL"}, {"measurement": "Mean brain concentration", "setting": "[4]; [6]", "value": 6647, "unit": "ng/g"}, {"measurement": "Mean plasma concentration", "setting": "[4]; [6]", "value": 698, "unit": "ng/mL"}, {"measurement": "Mean brain concentration", "setting": "[4]; [7]", "value": 5363, "unit": "ng/g"}, {"measurement": "Mean plasma concentration", "setting": "[4]; [7]", "value": 620, "unit": "ng/mL"}, {"measurement": "Mean brain concentration", "setting": "[4]; [8]", "value": 3941, "unit": "ng/g"}, {"measurement": "Mean plasma concentration", "setting": "[4]; [8]", "value": 343, "unit": "ng/mL"}, {"measurement": "Mean brain concentration", "setting": "[4]; [9]", "value": 4684, "unit": "ng/g"}, {"measurement": "Mean plasma concentration", "setting": "[4]; [9]", "value": 473, "unit": "ng/mL"}, {"measurement": "AUClast", "setting": "[4]; brain, analyte after CD3O-ibogamine 40 mg/kg i.p.", "value": 16357.31, "unit": "ng·h/g"}, {"measurement": "AUC(0-t)", "setting": "[4]; male, Wistar, rat, in vivo, ip, 40 mg/kg, AUClast, plasma, analyte after CD3O-ibogamine 40 mg/kg i.p.", "value": 1700, "unit": "ng·h/mL"}, {"measurement": "Cmax", "setting": "[4]; [10]", "value": 11300, "unit": "ng/g"}, {"measurement": "Cmax", "setting": "[4]; [11]", "value": 1230, "unit": "ng/mL"}, {"measurement": "Tmax", "setting": "[4]; [10]", "value": 4.8, "unit": "min"}, {"measurement": "Tmax", "setting": "[4]; [11]", "value": 4.8, "unit": "min"}, {"measurement": "difference of plasma concentration versus ibogaine (lower for CD3O-ibogamine)", "setting": "[4]; single i.p. dose 40 mg/kg", "value": "approximately 25%"}, {"measurement": "maximum brain concentration as percent of the ibogaine concentration detected after its administration", "setting": "[4]; single i.p. dose 40 mg/kg", "value": "~43", "unit": "%"}, {"measurement": "CLh, int", "setting": "[1]; HLM", "value": 42, "unit": "mL/min/kg"}, {"measurement": "metabolic degradation, times faster compared to that of ibogaine", "setting": "[1]; HLM", "value": "more than 2 ×"}, {"measurement": "Percentage turnover of test compounds (percent remaining)", "setting": "[1]; HLM, 0 min, 10 μM, +NADPH", "value": 100, "unit": "%"}, {"measurement": "Percentage turnover of test compounds (percent remaining)", "setting": "[1]; HLM, 5 min, 10 μM, +NADPH", "value": 98, "unit": "%"}, {"measurement": "Percentage turnover of test compounds (percent remaining)", "setting": "[1]; HLM, 15 min, 10 μM, +NADPH", "value": 83, "unit": "%"}, {"measurement": "Percentage turnover of test compounds (percent remaining)", "setting": "[1]; HLM, 30 min, 10 μM, +NADPH", "value": 67, "unit": "%"}, {"measurement": "Percentage turnover of test compounds (percent remaining)", "setting": "[1]; HLM, 60 min, 10 μM, +NADPH", "value": 25, "unit": "%"}, {"measurement": "% Remaining at 60 min (+NADPH)", "setting": "[1]; HLM, summary", "value": 25, "unit": "%"}, {"measurement": "% Remaining at 60 min (−NADPH)", "setting": "[1]; HLM, without NADPH", "value": 105, "unit": "%"}, {"measurement": "half-life", "setting": "[1]; human, microsomes, pH 7.4", "value": 30, "unit": "min"}, {"measurement": "CLh, int", "setting": "[2]; RLM", "value": 742, "unit": "mL/min/kg"}, {"measurement": "t1/2", "setting": "[2]; RLM", "value": "<5", "unit": "min"}, {"measurement": "Percentage turnover of test compounds (percent remaining)", "setting": "[2]; RLM, 0 min", "value": 100, "unit": "%"}, {"measurement": "Percentage turnover of test compounds (percent remaining)", "setting": "[2]; RLM, 5 min", "value": 36, "unit": "%"}, {"measurement": "Percentage turnover of test compounds (percent remaining)", "setting": "[2]; RLM, 15 min", "value": 0, "unit": "%"}, {"measurement": "Percentage turnover of test compounds (percent remaining)", "setting": "[2]; RLM, 30 min", "value": 1, "unit": "%"}, {"measurement": "Percentage turnover of test compounds (percent remaining)", "setting": "[2]; RLM, 60 min", "value": 0, "unit": "%"}, {"measurement": "% Remaining at 60 min (+NADPH)", "setting": "[2]; RLM", "value": 0, "unit": "%"}, {"measurement": "% Remaining at 60 min (−NADPH)", "setting": "[2]; RLM", "value": 105, "unit": "%"}, {"measurement": "metabolism compared to ibogaine in the in vitro study", "setting": "[2]; in vitro microsome study", "value": "metabolized faster than ibogaine"}, {"measurement": "half-life at 10 μM", "setting": "[2]", "value": "< 5", "unit": "min"}, {"measurement": "total amount of noribogaine produced compared to ibogaine", "setting": "[2]; short incubation period (~5 min)", "value": "comparable"}, {"measurement": "% Remaining at 60 min (Buffer)", "setting": "[3]", "value": 90, "unit": "%"}]}
